Test results reported in patent publication US20260151518A1, “LEUKOCYTE-SPECIFIC CELL PENETRATING MOLECULES” (Amytrx Therapeutics, Inc., priority 2021, published 2026).

Assays:
[1] = Blood partition calculation after single administration of [3H]-AMTX-100; assay type: in vivo; design: Partition coefficient / Non-plasma compartment: unit not given here; conditions: single intravenous (title), 5 mg/kg, rat
Method: Eight male Sprague Dawley rats each received a single IV administration of [^3H]-AMTX-100 and a terminal sample of whole blood (each approximately 5-10 mL) was collected via cardiac puncture under isofluorane anesthesia from a single rat at the following time points: […]
Whole blood was collected into tubes containing K2-EDTA as anticoagulant. Following collection, an aliquot of whole blood (approximately 4 mL) was retained for analysis of whole blood and white blood cell (WBC) concentrations. The remaining whole blood samples were processed to plasma. Plasma samples were not depleted of white blood cells.

[2] = Pharmacokinetics of [3H]-AMTX-100 after multiple routes of administration; assay type: in vivo, rat; conditions: rat
Method: AMTX-100 was radiolabeled with 3H at lysine residues and injected into Sprague-Dawley rats in a single dose by seven different routes (intravenous, subcutaneous, topical [skin], intratracheal, intraduodenal, esophageal, and oral). The rats were evaluated at various time points, up to 120 hours, by: a) blood samples were taken for pharmacokinetics (PK) by cardiac puncture; b) rats were frozen and sectioned for QWBA and/or micro-auto-radiography and histology; and c) frozen sections were made and freeze dried and exposed to phosphor-storage imaging plates and tissue radioactivity in images was quantified as tissue: blood ratios.
For all PK studies, the following definitions were used: WB=whole blood; Plasma=whole blood depleted of red blood cells; WBCD=whole blood depleted of white blood cells in which the whole blood is passed over a Pall Acrodisc filter (about 60% efficient); WBCs=the cells which bind to, and are washed off, the Pall Acrodisc filter.

Structure (SMILES): CSCC[C@@H]1NC(=O)[C@H](CC(C)C)NC(=O)[C@H](CCCCN)NC(=O)[C@H](CCC(N)=O)CC(=O)[C@H](CCCNC(=N)N)NC(=O)[C@H](CCCCN)NC(=O)[C@H](CCCNC(=N)N)NC(=O)[C@H](CCC(N)=O)NC(=O)[C@H](C(C)C)NC(=O)[C@@H](NC(=O)[C@@H]2CCCN2C(=O)[C@H](C)NC(=O)[C@H](CC(C)C)NC(=O)[C@H](CC(C)C)NC(=O)[C@H](C)NC(=O)[C@H](CC(C)C)NC(=O)[C@H](CC(C)C)NC(=O)[C@@H](NC(=O)[C@H](C)NC(=O)[C@@H]2CCCN2C(=O)[C@H](CC(C)C)NC(=O)[C@H](CC(C)C)NC(=O)[C@H](C)NC(=O)[C@@H](NC(=O)[C@H](C)NC(=O)[C@H](C)N)C(C)C)C(C)C)CSSC[C@@H](C(=O)O)NC(=O)[C@@H]2CCCN2C1=O [[^3H]-AMTX-100]
- Blood ([1]; 1 h): 0.081 µg/mL
- Non-plasma compartment ([1]; 1 h): 11.7
- Partition coefficient ([1]; 1 h): 88.3
- Plasma ([1]; 1 h): 0.110 µg/mL
- Blood ([1]; 2 h): 0.059^1 μg/mL
- Non-plasma compartment ([1]; 2 h): 20.3
- Partition coefficient ([1]; 2 h): 79.7
- Plasma ([1]; 2 h): 0.084 µg/mL
- Blood ([1]; 4 h): 0.054 µg/mL
- Non-plasma compartment ([1]; 4 h): 24.4
- Partition coefficient ([1]; 4 h): 75.6
- Plasma ([1]; 4 h): 0.068 µg/mL
- Blood ([1]; 8 h): 0.070 µg/mL
- Non-plasma compartment ([1]; 8 h): 22.9
- Partition coefficient ([1]; 8 h): 77.1
- Plasma ([1]; 8 h): 0.090 µg/mL
- Blood ([1]; 24 h): 0.120 µg/mL
- Non-plasma compartment ([1]; 24 h): 27.0
- Partition coefficient ([1]; 24 h): 73.0
- Plasma ([1]; 24 h): 0.146 µg/mL
- Blood ([1]; 48 h): 0.186 µg/mL
- Non-plasma compartment ([1]; 48 h): 28.7
- Partition coefficient ([1]; 48 h): 71.3
- Plasma ([1]; 48 h): 0.221 µg/mL
- Specific target cells in blood [2]: WBCs and not RBCs are the specific target
- Residence time in plasma ([2]; Sub-Q, single dose): > 672 h
- Presence in tissue ([2]; after a single dose): found in tissue in which WBCs congregate, but not cardiac or skeletal muscle tissue
- Entry into the bloodstream ([2]; all routes of administration): by all routes of administration makes its way into the bloodstream
- Resistance to degradation ([2]; esophageal administration, L-amino acid version): resistant to degradation
